From publication PMC6257821, “Selective agonist of TRPML2 reveals direct role in chemokine release from innate immune cells” (eLife, 2018)

Legend:
Format in all cases: cell-based
hTRPML2 = target: T1, hTRPML2 (Homo sapiens, UniProt Q8IZK6); test: fura-2 calcium imaging dose-response and endolysosomal patch-clamp in HEK293 cells; G425A mutation abrogates effect
T1 construct: gene MCOLN2; hTRPML2-YFP
T1 sequence (Q8IZK6 1-566): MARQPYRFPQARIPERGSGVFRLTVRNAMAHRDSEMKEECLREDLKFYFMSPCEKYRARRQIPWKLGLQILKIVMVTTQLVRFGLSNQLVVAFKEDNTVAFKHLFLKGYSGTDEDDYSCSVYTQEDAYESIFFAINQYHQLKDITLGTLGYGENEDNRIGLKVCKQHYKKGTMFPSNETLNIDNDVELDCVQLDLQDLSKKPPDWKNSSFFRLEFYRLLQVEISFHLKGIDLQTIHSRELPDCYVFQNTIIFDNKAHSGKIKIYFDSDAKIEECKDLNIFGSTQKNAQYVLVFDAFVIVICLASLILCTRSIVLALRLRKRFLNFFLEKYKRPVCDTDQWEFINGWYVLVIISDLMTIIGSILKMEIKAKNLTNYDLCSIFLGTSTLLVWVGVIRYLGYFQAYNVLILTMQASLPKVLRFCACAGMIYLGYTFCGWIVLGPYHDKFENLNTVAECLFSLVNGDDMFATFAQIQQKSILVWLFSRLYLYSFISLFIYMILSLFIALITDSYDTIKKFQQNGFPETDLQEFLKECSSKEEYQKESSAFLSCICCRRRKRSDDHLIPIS

mTRPML2 = target: T2, mTRPML2 (Mus musculus, UniProt Q8K595); test: fura-2 calcium imaging dose-response in HEK293 cells; endolysosomal patch-clamp in LPS-stimulated mouse macrophages
T2 construct: gene Mcoln2
T2 sequence (Q8K595 1-566): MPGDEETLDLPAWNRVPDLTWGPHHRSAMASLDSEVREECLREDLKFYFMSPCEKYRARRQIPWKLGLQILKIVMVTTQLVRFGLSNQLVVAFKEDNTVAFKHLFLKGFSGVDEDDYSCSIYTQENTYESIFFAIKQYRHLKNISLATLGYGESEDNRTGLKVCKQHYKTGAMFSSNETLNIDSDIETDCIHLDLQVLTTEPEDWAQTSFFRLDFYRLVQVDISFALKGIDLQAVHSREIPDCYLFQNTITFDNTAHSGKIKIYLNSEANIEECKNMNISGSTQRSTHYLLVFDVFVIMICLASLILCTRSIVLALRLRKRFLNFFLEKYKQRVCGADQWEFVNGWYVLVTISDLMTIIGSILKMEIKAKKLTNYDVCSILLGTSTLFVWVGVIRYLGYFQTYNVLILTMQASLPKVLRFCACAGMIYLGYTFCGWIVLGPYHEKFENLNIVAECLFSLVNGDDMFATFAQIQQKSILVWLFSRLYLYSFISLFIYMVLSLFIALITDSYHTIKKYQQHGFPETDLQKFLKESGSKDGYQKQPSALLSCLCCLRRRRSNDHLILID

hTRPML1 = target: T3, hTRPML1 (Homo sapiens, UniProt Q9GZU1); test: endolysosomal patch-clamp (LE/LY, HEK293), […], positive control
T3 construct: gene MCOLN1
T3 sequence (Q9GZU1 whole entry): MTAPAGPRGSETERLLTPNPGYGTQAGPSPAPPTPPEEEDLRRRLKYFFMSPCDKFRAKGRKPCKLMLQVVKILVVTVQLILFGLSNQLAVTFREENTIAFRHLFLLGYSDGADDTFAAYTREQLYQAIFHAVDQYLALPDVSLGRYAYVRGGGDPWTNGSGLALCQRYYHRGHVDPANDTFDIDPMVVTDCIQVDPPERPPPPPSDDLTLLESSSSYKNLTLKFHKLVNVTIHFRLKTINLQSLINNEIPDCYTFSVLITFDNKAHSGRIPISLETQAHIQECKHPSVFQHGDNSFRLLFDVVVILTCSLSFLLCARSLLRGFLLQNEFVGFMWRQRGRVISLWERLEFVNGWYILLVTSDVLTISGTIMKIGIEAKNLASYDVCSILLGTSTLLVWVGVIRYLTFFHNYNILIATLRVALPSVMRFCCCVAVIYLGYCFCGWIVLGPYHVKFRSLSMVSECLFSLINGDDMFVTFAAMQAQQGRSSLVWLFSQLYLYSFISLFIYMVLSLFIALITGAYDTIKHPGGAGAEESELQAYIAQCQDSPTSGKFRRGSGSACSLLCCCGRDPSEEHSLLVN

hTRPML3 = target: T4, hTRPML3 (Homo sapiens, UniProt Q8TDD5); test: as above; set-up: gene MCOLN3
T4 sequence (Q8TDD5 1-553): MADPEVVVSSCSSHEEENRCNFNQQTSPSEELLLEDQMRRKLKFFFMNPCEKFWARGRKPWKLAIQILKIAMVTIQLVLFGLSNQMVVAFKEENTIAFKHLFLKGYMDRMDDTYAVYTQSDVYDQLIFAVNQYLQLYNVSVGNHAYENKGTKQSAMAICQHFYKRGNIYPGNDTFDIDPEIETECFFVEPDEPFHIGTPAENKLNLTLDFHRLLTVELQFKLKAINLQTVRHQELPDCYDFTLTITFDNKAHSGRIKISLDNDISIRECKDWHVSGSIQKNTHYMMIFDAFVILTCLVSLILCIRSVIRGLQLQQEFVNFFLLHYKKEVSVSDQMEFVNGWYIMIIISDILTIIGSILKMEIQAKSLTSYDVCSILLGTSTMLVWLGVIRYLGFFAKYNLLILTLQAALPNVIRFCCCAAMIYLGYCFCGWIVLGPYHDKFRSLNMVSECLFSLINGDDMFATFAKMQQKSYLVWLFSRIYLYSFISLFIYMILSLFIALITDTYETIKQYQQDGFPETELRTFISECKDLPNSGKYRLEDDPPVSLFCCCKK

Compound	EC50 (hTRPML2) [nM]	EC50 (mTRPML2) [nM]	endolysosomal patch-clamp (LE/LY, HEK293), 10 μM, positive control (hTRPML1)	endolysosomal patch-clamp (LE/LY, HEK293), 10 μM, positive control (hTRPML3)
Clc1cccc(Cl)c1C1=NOC2C3CCC(C3)C12 (stereo not shown) [EVP-22, ML2-SA1]	1240 ± 120	2380 ± 10	–	–
CC1CC(C)(C)N(C(=O)CN2C(=O)c3ccccc3C2=O)c2ccccc21 (stereo not shown) [ML-SA1]	–	–	the latter ones were robustly activated by ML-SA1 as a positive control	the latter ones were robustly activated by ML-SA1 as a positive control
